# Experimental data from patent US20050143430A1, “Catechol bioisosteres” (priority 2002, published 2005).
# Biological target: Insulin-like Growth Factor 1 Receptor (IGF-1R) (Homo sapiens, UniProt P08069)
# Assay: IGF-1R inhibition in vitro
# Format: biochemical
# Sequence of Insulin-like Growth Factor 1 Receptor (IGF-1R) (P08069 31-1367, species assumed): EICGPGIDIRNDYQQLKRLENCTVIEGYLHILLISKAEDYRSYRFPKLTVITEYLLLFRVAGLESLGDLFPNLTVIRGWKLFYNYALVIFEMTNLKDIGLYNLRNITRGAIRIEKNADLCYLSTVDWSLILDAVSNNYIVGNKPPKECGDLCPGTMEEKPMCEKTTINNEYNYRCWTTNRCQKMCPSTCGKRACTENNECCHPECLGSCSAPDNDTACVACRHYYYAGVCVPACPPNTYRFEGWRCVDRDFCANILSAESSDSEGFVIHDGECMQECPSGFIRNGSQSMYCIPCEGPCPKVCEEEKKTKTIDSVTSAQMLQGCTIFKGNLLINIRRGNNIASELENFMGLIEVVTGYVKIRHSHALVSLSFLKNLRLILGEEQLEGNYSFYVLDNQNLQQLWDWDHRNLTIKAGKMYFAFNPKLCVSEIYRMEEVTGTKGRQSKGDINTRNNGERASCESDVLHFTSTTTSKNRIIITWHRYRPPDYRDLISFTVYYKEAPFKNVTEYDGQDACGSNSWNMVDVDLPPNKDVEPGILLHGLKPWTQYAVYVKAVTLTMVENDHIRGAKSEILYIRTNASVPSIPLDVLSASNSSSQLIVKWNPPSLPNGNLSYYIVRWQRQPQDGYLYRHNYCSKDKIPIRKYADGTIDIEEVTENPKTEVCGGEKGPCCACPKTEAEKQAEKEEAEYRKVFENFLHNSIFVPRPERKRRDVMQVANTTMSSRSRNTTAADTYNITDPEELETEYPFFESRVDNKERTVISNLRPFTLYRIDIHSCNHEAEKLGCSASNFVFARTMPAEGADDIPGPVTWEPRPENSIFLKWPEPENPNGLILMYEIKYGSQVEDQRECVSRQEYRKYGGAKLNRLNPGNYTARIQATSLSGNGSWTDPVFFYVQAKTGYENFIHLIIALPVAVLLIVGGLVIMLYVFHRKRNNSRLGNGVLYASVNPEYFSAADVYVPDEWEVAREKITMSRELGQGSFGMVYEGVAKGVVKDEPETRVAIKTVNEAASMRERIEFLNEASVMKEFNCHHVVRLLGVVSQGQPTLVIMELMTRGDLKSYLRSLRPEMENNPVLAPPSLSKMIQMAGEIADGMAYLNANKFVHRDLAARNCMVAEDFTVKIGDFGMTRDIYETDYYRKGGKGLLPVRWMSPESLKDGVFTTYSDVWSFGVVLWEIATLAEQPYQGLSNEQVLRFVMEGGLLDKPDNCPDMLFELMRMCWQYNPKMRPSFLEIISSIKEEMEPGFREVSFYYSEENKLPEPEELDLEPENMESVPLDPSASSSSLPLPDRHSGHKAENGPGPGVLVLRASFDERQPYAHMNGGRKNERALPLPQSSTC
row,SMILES,IC50 [nM]
1,N#C/C(=C\c1ccc2oc(=O)[nH]c2c1)C(=O)c1ccc2[nH]c(=O)oc2c1 [GB 17],12000
2,N#C/C(=C\c1ccc2oc(=O)[nH]c2c1)C(=O)c1ccc(O)c(O)c1 [AGL 2263],70
3,"N#C/C(=C\c1ccc(O)c(O)c1)C(=O)c1ccc(O)c(O)c1 [AG 538, reference compound]",60
4,"N#CC(=Cc1ccc(O)c(O)c1)C(=O)c1ccc2[nH]c(=O)oc2c1 (single isomer, unassigned) [GB16-11]",200

# Other lines, results leading:
row,IC50 [nM],SMILES
1,4200,N#C/C(=C\c1ccc2[nH]c(=O)oc2c1)C(=O)c1ccc2[nH]c(=O)oc2c1 [GB18]
2,1200,"N#CC(=Cc1ccc(O)c(O)c1)C(=O)c1ccc2[nH]c(=O)oc2c1 (single isomer, unassigned) [GB 16-10]"
